Test [1] concerns Penicillium chrysogenum Thom ATCC 48908. Description: Well diffusion assay (zone of inhibition). The format is cell-based. The note with it: for zone of inhibition at 175000 µM / zone of inhibition at 350000 µM: Penicillium chrysogenum, read-out: Zone of inhibition, Average ± standard deviation.
For test [2], the system named is Aspergillus niger isolate. Nature of the test: Minimum fungicidal concentration (MFC). Type of test: cell-based. The note with it: for MFC: Aspergillus niger, read-out: Minimum fungicidal concentration.
For test [3], the system named is Aspergillus niger ATCC 24126. Description: Well diffusion assay (zone of inhibition). The format is cell-based. The note with it: for zone of inhibition at 175000 µM / zone of inhibition at 350000 µM: Aspergillus niger, read-out: Zone of inhibition, Average ± standard deviation.
A further test concerns A. niger. Description: Fungicidal effect in mold suspension, one hour treatment, DRBC plating. Type of test: cell-based, Aspergillus niger. The note with it: for A. niger count, Average ± standard deviation: n = 3. How it is done:
Preparation of mold suspension. Aspergillus niger ATCC 24126 and Penicillium chrysogenum Thom ATCC 48908 were purchased from American Type Culture Collection (ATCC). The strains were stored at −80° C. in glycerol. Prior to test, both strains were revived by streaking a loopful of culture onto DRBC (i.e., dichloran rose-bengal chloramphenicol (CM1148B; Thermo Scientific Oxoid) prepared as per recommended by supplier) with 72 hours incubation at 25° C. The three-days old mold culture lawn was diluted in phosphate buffer (0.30 mM; pH 7.2) to obtain a mold suspension of ca. 10^6 CFU/mL. The colony count of the suspension was determined through conventional plating method using DRBC agar at the appropriate dilution. Briefly, the mold suspension was diluted to the appropriate dilution with phosphate buffer (0.30 mM; pH 7.2). Upon dilution, 100 μL of the diluted mold suspension was spread onto the DRBC agar. After which, the plates were incubated at 25° C. for five days prior to counting. Tests were carried out in triplicates.
Fungicidal effect of PPA against A. niger. The fungicidal effect of PPA in solution was evaluated in comparison to propionic acid and hydrogen peroxide. To serve as a positive control and comparison point, propionic acid, was tested at two concentrations, 1500 and 3000 ppm, equivalent to 0.02 and 0.04 mol/L. On the other hand, PPA was tested at a single concentration of 0.02 mol/L. To evaluate the effect of hydrogen peroxide, hydrogen peroxide was also included as one of the treatment groups. Hydrogen peroxide was tested at 2.43% w/w. The concentration of hydrogen peroxide to be tested is calculated based on the equivalent amount present in 0.02 mol/L of PPA, which is the sum of hydrogen peroxide already present and from the potential breakdown of PPA. A 900 μL of mold suspension (of c.a. 10^6 CFU/mL prepared in 0.9% sodium chloride) was treated with 100 μL of the test solutions (prepared in sterile water) for one hour.
After one hour, the treatment solutions were neutralized with 2 mL of sodium thiosulphate and 7 mL of phosphate buffer (0.3 mM; pH 7.2). The solution was at 10-1 dilution. Subsequently the solution was further diluted up to 10-5 with phosphate buffer. The mold count for each treatment was determined through conventional plating method using DRBC agar. Test was conducted in triplicates. Controls were prepared with i) 100 μL of sterile water instead of test solutions and ii) 900 μL of 0.9% sodium chlorine instead of mold suspension and 100 μL of sterile water instead of test solutions.

Test [4] has as its system mold in naturally contaminated feed for laying hens. Nature of the test: Mold counts in naturally contaminated laying hen feed, 7 days. Particulars: 2500 ppm peroxyacid on feed, 7 days at 25° C. How it is done: PPA acid and peracetic acid stock solutions were provided at a concentration of 20% peroxyacid. The treatment solutions were diluted to the correct concentration with ASTM Type II water before application of the treatments. Feed for laying hens that is naturally contaminated with mold was used for the study. The initial mold count of the feed was log 4.66 cfu/g. For each treatment, 100 g of feed was treated with 1.5 ml of the diluted PPA, peracetic acid or a 1:1 mix of PPA acid and peracetic acid, resulting in a final concentration of 2500 ppm of peroxyacid on the feed. The negative control treatment was treated with 1.5 ml of water. The feed was kept for 7 days at 25° C. before analysis.
Triplicate 5 g feed samples from each treatment were taken and tested for molds. Each sample was mixed vigorously with 0.1% peptone water 30 s and then a 0.1 ml aliquot of the sample was plated on DRBC agar and incubated upright in a 25° C. incubator for 5 days before counting.

The next test deals with Aspergillus niger. Particulars: cited from earlier work.
Another test concerns Penicillium vericulosum. Particulars: cited from earlier work.
In test [5] the test system is Aspergillus spp., Penicillium spp, and Fusarium spp. Particulars: Higgins et al. 1999; cited from earlier work.
The mark [6] stands for this setting: ATCC48908, 0.175 mol/L active, 72 hours, n = 3.
The mark [7] stands for this setting: ATCC48908, 0.350 mol/L active, 72 hours, n = 3.
[8] abbreviates: 48 hours at 25° C., then DRBC plate 5 days at 25° C.
Where [9] appears, read: 0.175 mol/L active, 72 hours, n = 3.
Setting [10] is: 0.350 mol/L active, 72 hours, n = 3.

Converted amounts (≈) assume the structure as drawn. Where two headings read alike, the source gives them in different places. Marks after values point to notes of the source that are not given here. Bounds are passed on as bounds.

For the molecule `CC(=O)O` [Acetic acid], the zone of inhibition at 175000 µM in test [1] (setting [6]) worked out at 8.97 ± 0.55 mm. The zone of inhibition at 350000 µM in test [1] (setting [7]) was 10.9 ± 0.75 mm. Further, the MFC in test [2] (setting [8]) was > 5000 µg/mL.

On to `CCCC(=O)O` [Butyric acid], for which, in test [2] (setting [8]), the MFC came out at 5000 µg/mL (≈ 56.7 mM).

Consider `OO` [Hydrogen peroxide], for which the “Zone of inhibition, Average ± standard deviation” value is 8.00 ± 0.00^b mm in test [3] (0.3% v/v, 72 hours, n = 3); 9.42 ± 0.16^bc mm in test [3] (0.6% v/v, 72 hours, n = 3); 10.93 ± 0.31^bc mm in test [3] (1.0% v/v, 72 hours, n = 3); 17.10 ± 0.05^cd mm in test [1] (0.3% v/v, 72 hours, n = 3); 19.32 ± 0.76^de mm in test [1] (0.6% v/v, 72 hours, n = 3); 22.08 ± 0.34d^ef mm in test [1] (1.0% v/v, 72 hours, n = 3). Moreover, the “reduction of A. niger count” value with A. niger (2.43%) is “approximately 1.2 log CFU/mL”. Further, the “A. niger count, Average ± standard deviation” value with A. niger (2.43% v/v) was 4.75 ± 0.13^b log CFU/mL.

With `CCC(=O)OO` [PPA, perpropionic acid], the “Zone of inhibition, Average ± standard deviation” value in test [3] (setting [9]) is listed as 16.42 ± 2.19^d mm; in test [3] (setting [10]), 25.67 ± 2.05^e mm; in test [1] (setting [9]) it was 23.80 ± 0.58^ef mm; in test [1] (setting [10]), 35.45 ± 4.55^g mm. Moreover, the “reduction of A. niger count” value in the test on A. niger (0.02 mol/L) is recorded as “at least 4 log CFU/mL”. In test [2] (setting [8]), this molecule came in with a Minimum fungicidal concentration of 500 ppm. In test [2] (from the MFC study), the “times more effective in killing mold than propionic acid” value is on record as “at least 5 times”. Also, the “mold counts seven days after treatment versus control” value in test [4] was “not significantly different from the control treatment”.

In the case of `CC(=O)OO` [Peracetic acid], in test [3] (ATCC24126, 72 h), the zone of inhibition at 175000 µM is 16 ± 0.8 mm and the zone of inhibition at 350000 µM worked out at 24.7 ± 2.04 mm. Besides, in test [1] (ATCC48908, 72 h), the zone of inhibition at 175000 µM was determined as 24.1 ± 0.33 mm and the zone of inhibition at 350000 µM came to 36 ± 3.8 mm. Besides, the MFC in test [2] was determined as 1000 µg/mL (≈ 13.1 mM). In addition, in test [4], the “mold counts seven days after treatment versus control” value is reported as “not significantly different from the control treatment”.

Take `CCC(=O)O` [Propionic acid]: the zone of inhibition at 175000 µM in test [3] (ATCC24126, 0.175 mol/L active, 72 hours, n = 3) was 9.42 ± 0.66 mm; in test [1] (setting [6]), 9.15 ± 0.45 mm. Besides, the zone of inhibition at 350000 µM was determined as 12.12 ± 0.03 mm in test [3] (ATCC24126, 0.350 mol/L active, 72 hours, n = 3) and 12.1 ± 0.43 mm in test [1] (setting [7]). Further, in the test on A. niger (0.02 mol/L), the “reduction of A. niger count” value is recorded as “no count reduction”. The figures for the “A. niger count, Average ± standard deviation” value in the test on A. niger (0.02 mol/L) and with A. niger (0.04 mol/L) were 6.01 ± 0.08^c log CFU/mL and 6.08 ± 0.11^c log CFU/mL, respectively. Also, the fungicidal effect entry in the test with A. niger (0.04 mol/L (3000 ppm)) is “no fungicidal effect”. Further, the Minimum fungicidal concentration in test [2] (setting [8]) was >5000 ppm. Besides, the “concentration capable of inhibiting” value in the test with Aspergillus niger and in the test with Penicillium vericulosum was 1000-2000 ppm throughout. Further, the “concentration for complete inhibition” value in test [5] is reported as “lower than 0.35%”.
